12 compounds from patent EP0185961A2, “1-Phenyl-imidazole-5-carboxylic acid derivatives, process for their preparation and their use as growth regulators” (HOECHST AKTIENGESELLSCHAFT, priority 1984, dated 1986) can be followed below.

Where two headings read alike, the source gives them in different places.

For data set [1], the system named is Sojabohnen. The note with it: in vivo.
From the text: (§4) Etwa 10 cm große Sojabohnen werden mit den Wirkstoffzubereitungen tropfnaß bespritzt. Nach 3 Wochen wird bonitiert.
(§5) Die Wuchshemmung wird als prozentualer Wert ermittelt, wobei 100% den Stillstand des Wachstums und 0% ein Wachstum entsprechend dem der unbehandelten Kontrollpflanzen bedeuten.
Data set [2] relates to Sojabohnen. The data set is described as follows: Growth inhibition in soybeans. Particulars: for pest or weed control at 2500 g/ha: Glycine max, 504 h, read-out: Wuchsshemmung (%); for Phytotox. Wirkung: soybeans, 2,5 kg/ha.
From the text: as §4, §5
For data set [3], the system named is Reispflanzen. The note with it: in vivo.
From the text: (§6) Reispflanzen werden in Kleinparzellen (2 m x 2 m) angezogen und im Stadium der maximalen Bestockung mit erfindungsgemäßen Verbindungen behandelt. Die Substanzen werden sowohl durch Spritzung appliziert als auch in das Wasser gegeben.
(§7) 3 Wochen nach der Behandlung wird bei allen Pflanzen der Zuwachs gemessen und die Wuchshemmung in % des Zuwachses der Kontrollpflanzen berechnet. Es wird außerdem auf eine mögliche phytotoxische Wirkung der Verbindungen geachtet.
as §5
In data set [4] the test system is Reispflanzen. The experiment in a line: Growth inhibition in paddy rice, small plots. Particulars: for pest or weed control at 620 g/ha / pest or weed control at 1250 g/ha: Oryza sativa, 504 h, read-out: Wuchsshemmung (%); for Phytotox. Wirkung: paddy rice, one cell for 1,25 and 0,62 kg/ha.
From the text: as §6, §7, §5
The test system of the next data set is Gerste. The data set is described as follows: Growth inhibition in cereals, greenhouse tray test, sprayed at 3-leaf stage. The note with it: % of growth increment of untreated controls; for pest or weed control at 1250 g/ha / pest or weed control at 2500 g/ha: read-out: Wuchsshemmung in % bei Gerste. Type of data set: in vivo. The source says:
(§1) In Schalenversuchen im Gewächshaus werden junge Getreidepflanzen (Weizen, Gerste, Roggen) im 3-Blattstadium mit erfindungsgemäßen Verbindungen in verschiedenen Wirkstoffkonzentrationen (kg/ha) tropfnaß gespritzt.
(§2) Es wird außerdem die phytotoxische Wirkung der Verbindung beobachtet.

The test system of data set [5] is Getreidepflanzen (Weizen, Gerste, Roggen). The data set is described as follows: Phytotoxic effect observed in the cereal growth inhibition test. Type of data set: in vivo. The note with it: cereals; one cell for 2,5 and 1,25 kg/ha.
From the text: as §1, §2

A further data set has as its system Weizen. The data set is described as follows: Growth inhibition in cereals, greenhouse tray test, sprayed at 3-leaf stage. Type of data set: in vivo. Particulars: % of growth increment of untreated controls (100% = growth standstill); for pest or weed control at 1250 g/ha / pest or weed control at 2500 g/ha: read-out: Wuchsshemmung in % bei Weizen. The source says:
(§3) In Schalenversuchen im Gewächshaus werden junge Getreidepflanzen (Weizen, Gerste, Roggen) im 3-Blattstadium mit erfindungsgemäßen Verbindungen in verschiedenen Wirkstoffkonzentrationen (kg/ha) tropfnaß gespritzt. […]

The next data set concerns Roggen. The description is as above. Type of data set: in vivo. The note with it: % of growth increment of untreated controls; for pest or weed control at 1250 g/ha / pest or weed control at 2500 g/ha: read-out: Wuchsshemmung in % bei Roggen.
From the text: as §3

On to `CCc1cccc(CC)c1-n1cncc1COCc1ccccc1C` [Beispiel 95], for which the “Phytotox. Wirkung” value (in the data set on Sojabohnen [1]; in the data set on Reispflanzen [3]; in data set [5]) was “keine Schäden” in each case. Besides, the pest or weed control at 2500 g/ha turned out to be 20% with Sojabohnen [2], 25% with Gerste (2,5 kg/ha), 19% in the data set on Weizen (2,5 kg/ha) and 22% in the data set on Roggen (2,5 kg/ha). For the same compound, in the data set on Reispflanzen [4], the pest or weed control at 620 g/ha is 14%. In addition, the pest or weed control at 1250 g/ha with Reispflanzen [4] came out at 18%; in the data set with Gerste (1,25 kg/ha), 17%; in the data set with Weizen (1,25 kg/ha), 14%; with Roggen (1,25 kg/ha) it was 15%.

In the case of `C#CCOC(=O)c1cncn1-c1c(CC)cccc1CC` [Beispiel 37], the pest or weed control at 2500 g/ha with Sojabohnen [2] is 17%; in the data set on Gerste (2,5 kg/ha), 25%; with Weizen (2,5 kg/ha) it was 15%; in the data set with Roggen (2,5 kg/ha), 19%. In addition, the “Phytotox. Wirkung” value (in the data set on Sojabohnen [2]; in the data set on Reispflanzen [4]; in data set [5]) was “keine Schäden” each time. Moreover, in the data set on Reispflanzen [4], the pest or weed control at 620 g/ha was found to be 11%. The pest or weed control at 1250 g/ha with Reispflanzen [4] came out at 19%; in the data set on Gerste (1,25 kg/ha), 12%; with Weizen (1,25 kg/ha), 8%; in the data set with Roggen (1,25 kg/ha), 7%.

“2-Chlorethyltriethylammoniumchlorid [reference compound]”: the “Wuchsshemmung in % bei Gerste” value with Gerste (1,25 kg/ha) was 0%; in the data set with Gerste (2,5 kg/ha) it was 8%. In addition, the “Phytotox. Wirkung” value in data set [5] is “keine Schäden”. The “Wuchsshemmung in % bei Weizen” value with Weizen (1,25 kg/ha) is listed as 23%; in the data set on Weizen (2,5 kg/ha), 27%. Further, the “Wuchsshemmung in % bei Roggen” value in the data set with Roggen (1,25 kg/ha) came out at 0%; with Roggen (2,5 kg/ha), 10%.

For `CCc1cccc(CC)c1-n1cncc1C(=O)NCC(=O)O` [Beispiel 60], the “Phytotox. Wirkung” value (with Sojabohnen [1]; in the data set with Reispflanzen [3]; in data set [5]) was “keine Schäden” in each case. For the same compound, the pest or weed control at 2500 g/ha in the data set with Sojabohnen [2] is 21%; in the data set on Gerste (2,5 kg/ha), 32%; with Weizen (2,5 kg/ha), 23%; with Roggen (2,5 kg/ha) it was 24%. Further, the pest or weed control at 620 g/ha in the data set on Reispflanzen [4] was 13%. Besides, the pest or weed control at 1250 g/ha in the data set on Reispflanzen [4] was found to be 21%; with Gerste (1,25 kg/ha) it was 19%; in the data set on Weizen (1,25 kg/ha), 13%; in the data set on Roggen (1,25 kg/ha), 17%.

As to `CCc1cccc(CC)c1-n1cncc1C(=O)ON=C(C)C(C)C` [Beispiel 42], the “Phytotox. Wirkung” value (with Sojabohnen [1]; in the data set on Reispflanzen [3]; in data set [5]) was “keine Schäden” in each case. In addition, the pest or weed control at 2500 g/ha was 19% in the data set with Sojabohnen [2], 31% in the data set on Gerste (2,5 kg/ha), 21% in the data set on Weizen (2,5 kg/ha) and 19% in the data set on Roggen (2,5 kg/ha). Further, the pest or weed control at 620 g/ha with Reispflanzen [4] stood at 14%. Besides, the pest or weed control at 1250 g/ha is 19% with Reispflanzen [4], 16% in the data set with Gerste (1,25 kg/ha), 12% with Weizen (1,25 kg/ha) and 14% in the data set with Roggen (1,25 kg/ha).

Turning to `CCc1cccc(CC)c1-n1cncc1C(=O)OCSC` [Beispiel 4, Methylthiomethyl-1-(2,6-diethylphenyl)-imidazol-5-carboxylat], the pest or weed control at 2500 g/ha with Sojabohnen [2] came to 21%; in the data set with Gerste (2,5 kg/ha), 34%; with Weizen (2,5 kg/ha), 21%; in the data set on Roggen (2,5 kg/ha), 26%. In addition, the “Phytotox. Wirkung” value (in the data set on Sojabohnen [2]; with Reispflanzen [4]; in data set [5]) was “keine Schäden” in each case. Further, the pest or weed control at 620 g/ha in the data set on Reispflanzen [4] was 16%. In addition, the pest or weed control at 1250 g/ha in the data set with Reispflanzen [4] was 21%; in the data set with Gerste (1,25 kg/ha), 17%; in the data set with Weizen (1,25 kg/ha) it was 14%; in the data set on Roggen (1,25 kg/ha), 20%.

In the case of `CCc1cccc(CC)c1-n1cncc1C(=O)NCC#N` [Beispiel 57], the “Phytotox. Wirkung” value (in the data set on Sojabohnen [1]; in the data set with Reispflanzen [3]; in data set [5]) was “keine Schäden” in each case. The pest or weed control at 2500 g/ha with Sojabohnen [2] amounted to 18%; in the data set on Gerste (2,5 kg/ha), 31%; in the data set with Weizen (2,5 kg/ha) it was 23%; in the data set with Roggen (2,5 kg/ha), 23%. Further, the pest or weed control at 620 g/ha with Reispflanzen [4] came to 13%. The pest or weed control at 1250 g/ha amounted to 20% with Reispflanzen [4], 18% in the data set with Gerste (1,25 kg/ha), 12% in the data set with Weizen (1,25 kg/ha) and 17% in the data set on Roggen (1,25 kg/ha).

Regarding `CCc1cccc(CC)c1-n1cncc1C=O` [Beispiel 13, 1-(2,6-Diethylphenyl)-5-formyl-imidazol], the “Phytotox. Wirkung” value (in the data set with Sojabohnen [1]; with Reispflanzen [3]; in data set [5]) was “keine Schäden” in each case. Further, the pest or weed control at 2500 g/ha in the data set on Sojabohnen [2] was determined as 25%; in the data set on Gerste (2,5 kg/ha) it was 37%; with Weizen (2,5 kg/ha), 24%; with Roggen (2,5 kg/ha), 27%. Besides, in the data set on Reispflanzen [4], the pest or weed control at 620 g/ha came to 16%. Further, the pest or weed control at 1250 g/ha was 24% in the data set on Reispflanzen [4], 19% in the data set on Gerste (1,25 kg/ha), 15% in the data set with Weizen (1,25 kg/ha) and 19% in the data set on Roggen (1,25 kg/ha).

On to `CCc1cccc(CC)c1-n1cncc1C(N)=NO` [Beispiel 8, 1-(2,6-Diethylphenyl)-imidazol-5-carboxamidoxim], for which the “Phytotox. Wirkung” value (in the data set on Sojabohnen [1]; in the data set with Reispflanzen [3]; in data set [5]) was “keine Schäden” each time. Further, the pest or weed control at 2500 g/ha in the data set on Sojabohnen [2] came out at 21%; in the data set with Gerste (2,5 kg/ha), 34%; in the data set with Weizen (2,5 kg/ha), 22%; in the data set with Roggen (2,5 kg/ha) it was 25%. In addition, in the data set with Reispflanzen [4], the pest or weed control at 620 g/ha was determined as 12%. For the same compound, the pest or weed control at 1250 g/ha with Reispflanzen [4] stood at 22%; in the data set on Gerste (1,25 kg/ha), 18%; in the data set with Weizen (1,25 kg/ha), 12%; with Roggen (1,25 kg/ha), 17%.

Turning to `CCc1cccc(CC)c1-n1cncc1C(=O)ON=C(C)C` [Beispiel 40], the “Phytotox. Wirkung” value (in the data set on Sojabohnen [1]; with Reispflanzen [3]; in data set [5]) was “keine Schäden” each time. Also, the pest or weed control at 2500 g/ha was found to be 26% in the data set with Sojabohnen [2], 38% in the data set on Gerste (2,5 kg/ha), 25% with Weizen (2,5 kg/ha) and 27% in the data set with Roggen (2,5 kg/ha). In addition, in the data set with Reispflanzen [4], the pest or weed control at 620 g/ha was 18%. In addition, the pest or weed control at 1250 g/ha in the data set on Reispflanzen [4] amounted to 25%; with Gerste (1,25 kg/ha), 19%; in the data set with Weizen (1,25 kg/ha), 16%; in the data set with Roggen (1,25 kg/ha), 21%.

Turning to `CCc1cccc(CC)c1-n1cncc1C(=O)NCC(=O)OC` [Beispiel 61], the “Phytotox. Wirkung” value (with Sojabohnen [1]; in the data set on Reispflanzen [3]; in data set [5]) was “keine Schäden” throughout. Besides, the pest or weed control at 2500 g/ha was 17% with Sojabohnen [2], 31% in the data set with Gerste (2,5 kg/ha), 23% with Weizen (2,5 kg/ha) and 25% in the data set with Roggen (2,5 kg/ha). Further, the pest or weed control at 620 g/ha in the data set on Reispflanzen [4] was 13%. For the same compound, the pest or weed control at 1250 g/ha in the data set on Reispflanzen [4] came to 20%; in the data set on Gerste (1,25 kg/ha) it was 19%; with Weizen (1,25 kg/ha), 13%; in the data set with Roggen (1,25 kg/ha), 18%.

As for `CCc1cccc(CC)c1-n1cncc1C=NO` [Beispiel 14, 1-(2,6-Diethylphenyl)-5-hydroximinomethyl-imidazol], the pest or weed control at 2500 g/ha in the data set on Sojabohnen [2] stood at 20%; in the data set with Gerste (2,5 kg/ha), 32%; in the data set on Weizen (2,5 kg/ha), 19%; in the data set on Roggen (2,5 kg/ha), 24%. The “Phytotox. Wirkung” value (with Sojabohnen [2]; in the data set with Reispflanzen [4]; in data set [5]) was “keine Schäden” throughout. Further, the pest or weed control at 620 g/ha in the data set on Reispflanzen [4] was determined as 13%. The pest or weed control at 1250 g/ha in the data set with Reispflanzen [4] turned out to be 21%; in the data set on Gerste (1,25 kg/ha) it was 16%; in the data set on Weizen (1,25 kg/ha), 11%; in the data set with Roggen (1,25 kg/ha), 13%.
